The values that follow come from the NIST ThermoML archive (doi:10.1016/j.fluid.2013.05.013).

For the data set the following is noted: 101.33 kPa, Liquid; for viscosity: Concentric cylinders viscometry; for mass density: Vibrating tube method.

± gives the expanded uncertainty stated by the source.

Take `CCn1cc[n+](C)c1.O=S(=O)([N-]S(=O)(=O)C(F)(F)F)C(F)(F)F`: the viscosity by setting is: (288.15 K) 47.97 ± 0.29 mPa·s; (298.15 K) 32.51 ± 0.2 mPa·s; (308.15 K) 23.34 ± 0.14 mPa·s; (318.15 K) 17.46 ± 0.11 mPa·s. Also, the mass density is reported as 1528.51 ± 0.7 kg/m3 (288.15 K), 1518.38 ± 0.69 kg/m3 (298.15 K), 1508.33 ± 0.68 kg/m3 (308.15 K) and 1498.36 ± 0.67 kg/m3 (318.15 K).

For the compound `CCn1cc[n+](C)c1.O=S(=O)([O-])C(F)(F)F` [1-ethyl-3-methylimidazolium trifluoromethanesulfonate], the viscosity reads like this: (288.15 K) 67.66 ± 0.45 mPa·s; (298.15 K) 45.12 ± 0.28 mPa·s; (308.15 K) 31.89 ± 0.2 mPa·s; (318.15 K) 23.4 ± 0.14 mPa·s. The mass density by setting is: (288.15 K) 1392.47 ± 0.57 kg/m3; (298.15 K) 1384.05 ± 0.56 kg/m3; (308.15 K) 1375.68 ± 0.56 kg/m3; (318.15 K) 1367.37 ± 0.55 kg/m3.
